The text below walks through data of PMC12094199 (Science Advances, 2025).

The test system of one data set is U87MG cells. As to the kind of experiment: Cell survival assay. Format: cell-based. Conditions: Homo sapiens, U-87 MG, 48 h, read-out: IC50 (cytotoxicity).
A short description of the next data set: Cell survival assay. It counts as cell-based. Conditions: human, HEK-293 cells.

By IC50 is commonly meant the concentration at which inhibition is half-maximal. With `CC(=O)O[C@H]1C(=O)[C@@]2(C)[C@H]([C@H](OC(=O)c3ccccc3)[C@]3(O)C[C@H](OC(=O)[C@H](O)[C@@H](NC(=O)c4ccccc4)c4ccccc4)C(C)=C1C3(C)C)[C@]1(OC(C)=O)CO[C@@H]1C[C@@H]2O` [PTX, paclitaxel], the IC50 in the data set on U87MG cells worked out at 218 ± 54.2 nM. Moreover, it took 27.8 ± 3.3 nM to reach half-maximal inhibition in the data set “Cell survival assay” (IC50 at 48 h).
